Laboratory results taken from patent US20150366862A1, “Use of flibanserin for the treatment of pre-menopausal sexual desire disorders” (Sprout Pharmaceuticals, Inc., priority 2005, published 2015).

Legend:
[1] = system: pre-menopausal female patients with HSDD; test: twelve-week randomized, double-blind, placebo-controlled proof of concept trial in pre-menopausal female patients with HSDD (IVR-FSBQ); format: in vivo, human
Method: This trial was designed as a prospective, multi-center, twelve-week, randomized, double-blind, placebo-controlled, proof of concept, parallel-group trial comparing the effects of flibanserin (maximum total daily dose: 100 mg b.i.d.) to placebo in pre-menopausal female patients with HSDD. Seventy-five patients were to be randomized to each treatment group.
This proof of concept trial was designed to assess whether twelve weeks of flibanserin treatment produced a clinically meaningful therapeutic response in healthy female patients with HSDD (as determined by DSM-IV criteria). Efficacy for flibanserin was assessed versus a parallel placebo group.
After a Screening period (no treatment) of approximately twenty-eight days, eligible patients were randomized into the twelve week, double-blind portion of the trial during which they were to take study medication in the morning and in the evening about 12 hours apart.
Patients must have been pre-menopausal females who were 18 to 45 years of age with the primary diagnosis of HSDD, acquired type, according to DSM-IV criteria. The current episode must have been at least 24 weeks in duration by the Baseline Visit.
The baseline severity criterion was from the Arizona Sexual Experiences Scale, requiring a score of 5 or 6 (very weak or no sex drive) on the sex drive item. […]

5-HT-1A receptor = molecular target: T1, 5-HT-1A receptor (Homo sapiens, UniProt P08908); conditions: background statement, no value given; cited from earlier work
T1 sequence (P08908 1-422): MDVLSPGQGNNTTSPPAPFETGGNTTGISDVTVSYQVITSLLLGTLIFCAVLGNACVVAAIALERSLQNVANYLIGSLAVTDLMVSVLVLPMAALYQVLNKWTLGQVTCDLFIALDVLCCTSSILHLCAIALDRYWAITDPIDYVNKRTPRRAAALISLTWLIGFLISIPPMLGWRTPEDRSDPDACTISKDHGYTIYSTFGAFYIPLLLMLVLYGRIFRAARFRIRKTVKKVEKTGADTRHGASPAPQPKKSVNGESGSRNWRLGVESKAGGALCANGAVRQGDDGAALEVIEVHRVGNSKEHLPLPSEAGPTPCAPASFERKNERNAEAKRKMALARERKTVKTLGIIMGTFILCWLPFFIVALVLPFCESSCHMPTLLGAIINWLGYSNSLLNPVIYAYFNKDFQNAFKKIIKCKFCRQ

5-HT2-receptor = conditions: background statement, no value given; cited from earlier work

O=c1[nH]c2ccccc2n1CCN1CCN(c2cccc(C(F)(F)F)c2)CC1 [flibanserin, 1-[2-(4-(3-trifluoromethyl-phenyl)piperazin-1-yl)ethyl]-2,3-dihydro-1H-benzimidazol-2-one]
IVR-FSBQ Frequency of Sexual Thoughts, monthly mean change from baseline vs placebo ([1]; pre-menopausal women with HSDD, 50 mg b.i.d. (up to 100 mg b.i.d. from Week 8), 12 weeks, FAS, LOCF, FIG. 1): clearly demonstrates the efficacy
sexual desire enhancing properties ([1]; studies of pre-menopausal female patients suffering from sexual dysfunction): displays sexual desire enhancing properties
affinity for the 5-HT-1A receptor (5-HT-1A receptor): shows affinity
affinity for the 5-HT2-receptor (5-HT2-receptor): shows affinity
